Laboratory results as given in patent publication US12357553B2, “Composition for treating hair loss or promoting hair growth, comprising piperonylic acid” (HESED BIO CO., LTD., priority 2017, dated 2025).

How the values were obtained:
ERK = ERK activation (phosphorylation) in HaCaT cells, Western blotting; assay type: cell-based
Method: (§1) It is well known that the activation of extracellular signal-regulated kinase (ERK) and protein kinase B (AKT) are induced by the EGFR activation and transmit signals required for cell growth and survival. Accordingly, as the activation of EGFR by piperonylic acid was verified in Examples 2 and 3, it was determined whether ERK and AKT, the downstream of EGFR, were also activated by piperonylic acid. Specifically, after HaCaT cells were cultured in a serum-free medium, the cells were treated with piperonylic acid at 0, 25, and 100 μM, and then ERK and AKT, which were activated when phsphorylated, were analyzed by Western blotting method. As antibodies, phosphor-site specific antibodies which are labeling factors of activated ERK and AKT and antibodies that measure total ERK and AKT were used, and GAPDH expressed from a housekeeping gene was measured in order to correct the amount of total proteins between lanes.
(§2) Subsequently, in order to confirm the pattern of ERK and AKT activities by piperonylic acid treatment over time, HaCaT cells cultured in a serum-free medium were treated with piperonylic acid, and then the activity pattern over time was analyzed.
(§3) In order to verify that the activation of ERK and AKT by piperonylic acid were induced by EGFR, the activity of EGFR was suppressed by treating cells with tyrphostin AG1478 which is an EGFR antagonist, and then the activities of ERK and AKT by piperonylic acid were analyzed.

AKT = AKT activation (phosphorylation) in HaCaT cells, Western blotting; assay type: cell-based
Method: as §1, §2, §3

[1] = test system: c-myc, c-jun, c-fos, and egr-1 genes; assay: Change in gene expression in HaCaT cells (real-time quantitative PCR, Western blotting); assay type: cell-based
Excerpt: Signaling by EGFR induces gene expression that is important for cell growth and survival via important signaling mediator proteins which are ERK and AKT. It is well known that c-myc, c-jun, c-fos, and egr-1 genes are genes which are regulated by EGFR and promote cell growth and survival. […] Specifically, a Tri-reagent was used for mRNA extraction, cDNA was made by a reverse transcription polymerase chain reaction (RT-PCR) using a poly-A primer and a reverse transcriptase, and the amount of each mRNA was measured using real-time quantitative PCR. The amount of each mRNA was corrected with the amount of β-actin which is a housekeeping gene.

EGFR [2] = target: T1, EGFR (Homo sapiens, UniProt P00533); assay: EGFP-SH2 biosensor system measuring EGFR activation (internalization) in A549 cells; assay type: cell-based; details: 100 μM, compared to DMSO control
Method: Using these characteristics, a biosensor system was manufactured such that EGFR internalization by the EGFR activation could be measured by a fluorescent protein. Specifically, an EGFP-SH2 vector was manufactured by removing only the SH2 domain of Grb2 and inserted it in an enhanced green fluorescent protein (EGFP) vector using recombinant DNA technology, and then introduced it into A549 cells for expression.
After being cultured in a serum-free medium for 24 hours, the cells were treated with piperonylic acid.

HaCaT cells [3] = assay: Cytotoxicity by MTT in HaCaT keratinocytes; assay type: cell-based
Method: The cytotoxicity of piperonylic acid was measured using HaCaT cells which are keratinocytes. When cells are treated with a yellow water-soluble substrate MTT tetrazolium, the substrate is reduced to MTT formazan by mitochondrial enzymes and the color changes to blue-violet. Since the more living cells there are, the darker the blue-violet color appears, the blue-violet absorbance at 540 nm reflects the concentration of living cells. Specifically, after cells were cultured fully in each well of a 96-well plate, cells were treated with piperonylic acid at a concentration of 0, 25, 50, 100, 250, and 500 μM and cultured at 37° C. in a 5% CO2 incubator for 24 hours and 48 hours, and then the viability of cells was measured by an MTT reagent. A control (0 μM) that had not been treated with piperonylic acid was treated with an equal amount of solvent, DMSO.

HaCaT cells [4] = assay: Growth promotion of keratinocytes by CCK-8 assay; assay type: cell-based; details: 50 μM and 100 μM, 24 hours, serum-free, compared to the negative control
Method: Cell counting kit-8 (CCK-8) is a water-soluble tetrazolium salt reagent called WST-8, and forms orange water-soluble formazan by a dehydrogenase in the mitochondria of living cells. The absorbance of the orange wavelength at 450 nm as indicated by CCK-8 reflects the number of cells, and thus has been used to measure cell growth and proliferation. The growth promotion efficacy of keratinocytes, HaCaT cells, was measured by CCK-8 assay using non-cytotoxic piperonylic acid at a concentration of 50 μM and 100 μM. Specifically, after 1×10^4 HaCaT cells were cultured on a 96-well plate for 24 hours, growth factors in the medium were removed by exchanging the medium with a serum-free medium, and then the cells were treated with piperonylic acid. […] After the cells were cultured for 24 hours, the cell growth was analyzed by treating the cells with CCK8 and measuring the absorbance at 450 nm.

HaCaT cells [5] = assay: Wound healing assay in keratinocytes; assay type: cell-based; details: 50 μM and 100 μM, culturing for 3 days, vs negative control
Method: Further, the cell growth promotion efficacy by piperonylic acid was confirmed through a wound healing assay. Specifically, after HaCaT cells were cultured fully on a 12-well plate, a wound area was formed using a yellow tip, and the cells were treated with piperonylic acid at 50 μM and 100 μM after exchanging the medium with a serum-free medium.

HaCaT cells [6] = assay: Resistance to UVB-induced cell damage, cell viability by CCK-8; assay type: cell-based; details: UVB at 25 mJ/cm^2, 100 μM; negative control 84%
Method: Among the ultraviolet wavelengths, the UVB wavelength corresponding to 280 to 315 nm penetrates the epidermal layer where many keratinocytes are present to cause cell damage. […] The solvent DMSO was used as a negative control, and cell viability was measured using the CCK-8 method used in Example 7.

[7] = test system: dermal papilla cells related to androgenic alopecia; assay: Proliferation of dermal papilla cells related to androgenic alopecia by MTT; assay type: cell-based, human; details: 50 μM, 24 hours, serum-free, vs DMSO
Excerpt: The dermal papilla cells related to androgenic alopecia used in the experiment were a cell line that was immortalized by inserting hTERT and SV40-Tag into dermal papilla cells (DPCs, passage 1) derived from male androgenic alopecia patients, and purchased from Epibiotech Co., Ltd. and used. The proliferation of dermal papilla cells was confirmed using MTT tetrazolium. MTT tetrazolium is reduced to MTT formazan by intracellular mitochondrial enzymes, and at this time, the yellow color turns blue violet. The more cells there are, the stronger the reduction, so a stronger blue violet color appears, and the concentration of living cells is measured by measuring the absorbance of the blue violet color at 540 nm. Specifically, 1×10^4 cells are aliquoted into 96-well cell culture plates and cultured for 24 hours. Thereafter, a serum-free medium was treated with 50 μM piperonylic acid, and then cultured for 24 hours. Then, after the cells were treated with the MTT reagent for 2 hours, cell growth was analyzed by adding DMSO thereto and confirming the color development at […]. A solvent DMSO was used as a negative control.

cyclin D = assay: Cyclin D protein level in dermal papilla cells, western blotting; assay type: cell-based, human; details: 25 and 50 μM, 24 hours, compared to the control
Method: In addition, in order to investigate a gene expression pattern involved in the proliferation of dermal papilla cells related to androgenic alopecia, the human dermal papilla cells were cultured in a serum-free medium for 24 hours, and then treated with 25 and 50 μM piperonylic acid, respectively. The cells were treated with a drug, and after 24 hours, the levels of cyclin D were analyzed by the western blotting method. As an antibody, GAPDH, which is always expressed constantly, was used to correct the total protein amount between the cyclin D antibody and each lane. A solvent DMSO was used as a negative control.

[8] = test system: dermal papilla cells related to androgenic alopecia; assay: Scratch (yellow tip) proliferation assay in dermal papilla cells related to androgenic alopecia; assay type: cell-based, human; details: 100 μM, 24 hours and 48 hours, serum-free, vs DMSO
Excerpt: Meanwhile, in order to investigate the proliferation pattern of dermal papilla cells related to androgenic alopecia during treatment with piperonylic acid, a 12-well cell culture plate was fully filled with the dermal papilla cells, and the cells were injured using a yellow tip. […] A solvent DMSO was used as a negative control.

EGFR [9] = target: T1, EGFR; assay: Pull-down of EGFR from HaCaT cell lysate with piperonylic acid-conjugated Sepharose 4B bead, Western blotting; assay type: binding; parameters: endogenous in cells; host or cells: HaCaT cells; details: 100 μM of free piperonylic acid added with the cell lysate
Method: In order to investigate the mechanism of EGFR activation by piperonylic acid confirmed in Example 2, it was confirmed in the present example whether piperonylic acid could interact with EGFR. For this purpose, piperonylic acid-4B bead was manufactured by conjugating piperonylic acid to a Cyanogen bromide-activated-Sepharose 4B bead purchased from Sigma-Aldrich. Equal amounts of HaCaT cell lysates were incubated with piperonylic acid-4B bead and control-4B used as the control, and proteins bound to the bead were analyzed by the Western blotting method. An anti-EGFR antibody was used in order to measure EGFR among the precipitated proteins, and anti-Actin and anti-GAPDH antibodies against actin and GAPDH proteins present in large amounts as housekeeping genes were used in order to support that the binding to piperonylic acid was selective.

EGFR [10] = target: T1, EGFR; assay: Tyrosine phosphorylation of EGFR in HaCaT cells (immunoprecipitation, Western blotting); assay type: cell-based; parameters: endogenous in cells; host or cells: HaCaT cells; details: 100 μM for 10 minutes, compared to DMSO
Method: In order to confirm whether the binding of piperonylic acid with EGFR directly induces the EGFR activation, HaCaT cells cultured in a serum-free medium were treated with piperonylic acid at a concentration of 100 μM for 10 minutes, and then the activation was measured through an increasing tyrosine phosphorylation of EGFR. Specifically, after only EGFR was precipitated from 500 μg of cell lysate by immunoprecipitation using anti-EGFR antibody and protein-G agarose beads, the level of tyrosine phosphorylation was analyzed by Western blotting method.

[11] = AG1478 at 200 nM for 10 minutes, then piperonylic acid
[12] = 100 μM, 10 minutes, compared to the control
[13] = piperonylic acid treatment, serum-free medium

T1 sequence (P00533 25-1210): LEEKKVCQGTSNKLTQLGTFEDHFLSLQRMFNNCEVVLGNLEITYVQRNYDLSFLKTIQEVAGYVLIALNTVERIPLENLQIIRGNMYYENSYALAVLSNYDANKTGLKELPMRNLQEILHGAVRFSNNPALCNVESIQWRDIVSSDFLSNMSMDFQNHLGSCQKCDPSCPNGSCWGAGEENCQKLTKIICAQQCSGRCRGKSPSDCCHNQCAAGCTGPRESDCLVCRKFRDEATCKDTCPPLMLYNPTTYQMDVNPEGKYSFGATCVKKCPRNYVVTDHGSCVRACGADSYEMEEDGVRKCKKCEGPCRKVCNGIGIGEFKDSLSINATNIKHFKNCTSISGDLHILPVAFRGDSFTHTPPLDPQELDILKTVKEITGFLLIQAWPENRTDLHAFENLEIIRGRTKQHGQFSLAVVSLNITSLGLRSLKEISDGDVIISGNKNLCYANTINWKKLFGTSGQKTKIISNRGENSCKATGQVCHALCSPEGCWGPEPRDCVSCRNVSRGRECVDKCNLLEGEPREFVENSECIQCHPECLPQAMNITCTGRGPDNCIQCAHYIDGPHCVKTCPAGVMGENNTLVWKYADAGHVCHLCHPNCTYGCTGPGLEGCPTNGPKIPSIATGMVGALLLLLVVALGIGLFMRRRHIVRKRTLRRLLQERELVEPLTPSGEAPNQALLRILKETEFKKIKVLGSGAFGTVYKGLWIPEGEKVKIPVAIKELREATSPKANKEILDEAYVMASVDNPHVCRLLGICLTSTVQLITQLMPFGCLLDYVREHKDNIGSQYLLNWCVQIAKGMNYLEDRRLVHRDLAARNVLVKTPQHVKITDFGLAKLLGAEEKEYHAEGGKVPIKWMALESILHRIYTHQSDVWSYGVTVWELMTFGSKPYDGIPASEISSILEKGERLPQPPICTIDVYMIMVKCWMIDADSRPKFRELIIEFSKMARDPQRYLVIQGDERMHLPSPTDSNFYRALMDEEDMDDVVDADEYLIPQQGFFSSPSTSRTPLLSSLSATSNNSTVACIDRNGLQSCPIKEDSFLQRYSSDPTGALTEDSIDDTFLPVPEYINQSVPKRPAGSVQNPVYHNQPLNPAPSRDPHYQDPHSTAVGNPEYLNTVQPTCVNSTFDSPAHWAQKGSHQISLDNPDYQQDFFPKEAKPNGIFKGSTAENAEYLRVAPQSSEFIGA

SMILES | ERK activation by piperonylic acid after EGFR antagonist (ERK; [11]) | AKT activation by piperonylic acid after EGFR antagonist (AKT; [11]) | gene expression of c-fos and egr-1 increased by piperonylic acid ([1]; AG1478 pre-treatment, piperonylic acid at 100 μM, 2 hours) | EGFR activation in biosensor system (change in fluorescence signal) (EGFR [2]) | cytotoxicity to keratinocytes (HaCaT cells [3]; 0-500 μM, 24 and 48 hours) | difference in cell viability from control (HaCaT cells [3]; 500 μM for 48 hours) | ERK activation (ERK; [12]) [fold] | pattern of ERK activity over time (ERK; [13]) | AKT activation (AKT; [12]) [fold] | pattern of AKT activity over time (AKT; [13]) | expression of Egr-1 and c-Fos proteins ([1]; 100 μM) | mRNA expression of c-jun ([1]; 100 μM, 0, 1, 2, and 6 hours) | cell growth and proliferation (CCK-8) (HaCaT cells [4]) | filling of wound area (HaCaT cells [5]) | cells survived after UVB (HaCaT cells [6]) [%] | cell proliferation of dermal papilla cells (MTT) [7] | expression of cyclin D protein (cyclin D) | cell proliferation of dermal papilla cells (scratch) [8] | amount of EGFR bound to bead under competition (EGFR [9]) | tyrosine phosphorylation of EGFR (EGFR [10]) [fold]
COc1cc2ncnc(Nc3cccc(Cl)c3)c2cc1OC [AG1478, tyrphostin AG1478, reference compound] | not activated | not activated | completely suppressed | – | – | – | – | – | – | – | – | – | – | – | – | – | – | – | – | –
O=C(O)c1ccc2c(c1)OCO2 [piperonylic acid] | – | – | – | EGFR was activated | very low | about 10% | 3.3 | rapidly induced for 5 to 10 minutes | 2.1 | rapidly induced for 5 to 10 minutes | increase in expression | increasing tendency | significantly increased | more rapidly filled | 89 | promoted cell proliferation | significantly increased | promoted cell proliferation | the amount of EGFR bound thereto was reduced | 1.8
